Experimental data from US6417199B1, “3-benzyl-benzothiophenes” (Eli Lilly and Company, priority 1995, dated 2002).

Experiments:
[1] = tested on: Serum Cholesterol; assay: Serum cholesterol in ovariectomized rat post-menopausal model; format: in vivo, Sprague Dawley rats; conditions: ovariectomized rats, dosed orally daily for 4 days; for ED50: Rattus norvegicus, po, 96 h
Procedure: In the examples illustrating the methods, a post-menopausal model was used in which effects of different treatments upon circulating lipids were determined.
Seventy-five day old female Sprague Dawley rats (weight range of 200 to 225 g) are obtained from Charles River Laboratories (Portage, Mich.). The animals are either bilaterally ovariectomized (OVX) or exposed to a Sham surgical procedure at Charles River Laboratories, and then shipped after one week. Upon arrival, they are housed in metal hanging cages in groups of 3 or 4 per cage and had ad libitum access to food (calcium content approximately 0.5%) and water for one week. Room temperature is maintained at 22.2°±1.7° C. with a minimum relative humidity of 40%. The photoperiod in the room was 12 hours light and 12 hours dark.
Dosing Reaimen Tissue Collection. After a one week acclimation period (therefore, two weeks post-OVX) daily dosing with test compound is initiated. 17α-ethynyl estradiol or the test compound is given orally, unless otherwise stated, as a suspension in 1% carboxymethylcellulose or dissolved in 20% cyclodextrin. Animals are dosed daily for 4 days. Following the dosing regimen, animals are weighed and anesthetized with a ketamine: xylazine (2:1, V:V) mixture and a blood sample is collected by cardiac puncture. The animals are then sacrificed by asphyxiation with CO2, the uterus is removed through a midline incision, and a wet uterine weight is determined.
Cholesterol Analysis. Blood samples are allowed to clot at room temperature for 2 hours, and serum is obtained following centrifugation for 10 minutes at 3000 rpm. Serum cholesterol is determined using a Boehringer Mannheim Diagnostics high performance cholesterol assay. Briefly the cholesterol is oxidized to cholest-4-en-3-one and hydrogen peroxide. The hydrogen peroxide is then reacted with phenol and 4-aminophenazone in the presence of peroxidase to produce a p-quinone imine dye, which is read spectrophotemetrically at 500 nm. Cholesterol concentration is then calculated against a standard curve. The entire assay is automated using a Biomek Automated Workstation.
Data presented in Table 1 below show results when rats were treated with certain compounds of the present invention. The compounds of the present invention generally reduce serum cholesterol compared to the ovariectomized control animals.

[2] = tested on: MCF-7 breast adenocarcinoma cells; assay: MCF-7 Proliferation Assay; format: cell-based; conditions: Homo sapiens, MCF7; MCF-7 cells, 48 hours with drug, tritiated thymidine incorporation; read-out: ED50 (the source's name)
Procedure: MCF-7 breast adenocarcinoma cells (ATCC HTB 22) were maintained in MEM (minimal essential medium, phenol red-free, Sigma, St. Louis, Mo.) supplimented with 10% fetal bovine serum (FBS) (V/V), L-glutamine (2 mM), sodium pyruvate (1 mM), HEPES {(N-[2-hydroxyethyl]piperazine-N′-[2-ethanesulfonic acid]10 mM}, non-essential amino acids and bovine insulin (1 ug/mL) (maintenance medium). Ten days prior to assay, MCF-7 cells were switched to maintenance medium supplemented with 10% dextran coated charcoal stripped fetal bovine serum (DCC-FBS) assay medium) in place of 10% FBS to deplete internal stores of steroids. MCF-7 cells were removed from maintenance flasks using cell dissociation medium (Ca++/Mg++ free HBSS (phenol red-free) supplemented with 10 mM HEPES and 2 mM EDTA). Cells were say medium and adjusted to 80,000 cells/mL. Approximately 100 μL (8,000 cells) were added to flat-bottom microculture wells (Costar 3596) and incubated at 37° C. in a 5% CO2 humidified incubator for 48 hours to allow for cell adherence and equilbration after transfer. Serial dilutions of drugs or DSMO as a diluent control were prepared in assay medium and 50 μL transferred to triplicate microcultures followed by 50 μL assay medium for a final volume of 200 μL. After an additional 48 hours at 37° C. in a 5% CO2 humidified incubator, microcultures were pulsed with tritiated thymidine (1 uCi/well) for 4 hours. Cultures were terminated by freezing at −70° C. for 24 hours followed by thawing and harvesting of microcultures using a Skatron Semiautomatic Cell Harvester. Samples were counted by liquid scintillation using a Wallac BetaPlace β counter. Results in Table 2 below show the ED50 for certain compounds of the present invention.

Q: Which results are given for `COC(c1ccc(OCCN2CCCCC2)cc1)c1c(-c2ccc(O)cc2)sc2cc(O)ccc12` (centres unmarked) [Example 1]?
A: ED50 [1]: 3.5 mg/kg; EC50 [2]: 0.8 nM

Q: What does the source list for `CCOC(c1ccc(OCCN2CCCCC2)cc1)c1c(-c2ccc(O)cc2)sc2cc(O)ccc12` (centres unmarked) [Example 2]?
A: ED50 [1]: 10 mg/kg; EC50 [2]: 3 nM

Q: How did the ED50 [1] turn out when `CCCOC(c1ccc(OCCN2CCCCC2)cc1)c1c(-c2ccc(O)cc2)sc2cc(O)ccc12` (centres unmarked) [Example 3] was run?
A: Its ED50 is 10 mg/kg.

Q: What about the EC50 [2] of the same compound?
A: Its EC50 is 2 nM.

Q: Which results are given for `CC(C)OC(c1ccc(OCCN2CCCCC2)cc1)c1c(-c2ccc(O)cc2)sc2cc(O)ccc12` (centres unmarked) [Example 4]?
A: ED50 [1]: 4.1 mg/kg; EC50 [2]: 10 nM

Q: Which ED50 [1] does the source give for `CCCCOC(c1ccc(OCCN2CCCCC2)cc1)c1c(-c2ccc(O)cc2)sc2cc(O)ccc12` (centres unmarked) [Example 5] here?
A: The ED50 was 2.5 mg/kg.

Q: And the EC50 [2]?
A: The EC50 was 1.5 nM.

Q: With `Oc1ccc(C2Sc3cc(O)ccc3C2C(OCc2ccccc2)c2ccc(OCCN3CCCCC3)cc2)cc1` (centres unmarked) [Example 6] as the compound, how does the ED50 [1] read?
A: The ED50 was 10 mg/kg.

Q: And the EC50 [2]?
A: Its EC50 is 0.5 nM.

Q: Which results are given for `N#CCCOC(c1ccc(OCCN2CCCCC2)cc1)c1c(-c2ccc(O)cc2)sc2cc(O)ccc12` (centres unmarked) [Example 7]?
A: ED50 [1]: 2.4 mg/kg; EC50 [2]: 7 nM

Q: With `OCCOC(c1ccc(OCCN2CCCCC2)cc1)c1c(-c2ccc(O)cc2)sc2cc(O)ccc12` (centres unmarked) [Example 8] as the compound, how does the ED50 [1] read?
A: Its ED50 is 2.9 mg/kg.

Q: What about the EC50 [2] of the same compound?
A: The EC50 was 20 nM.

Q: `CSC(c1ccc(OCCN2CCCCC2)cc1)c1c(-c2ccc(O)cc2)sc2cc(O)ccc12` (centres unmarked) [Example 9] was tested. Which ED50 [1] did it give?
A: Its ED50 is 5.1 mg/kg.

Q: What about the EC50 [2] of the same compound?
A: The EC50 was 3 nM.

Q: What does the source list for `CCSC(c1ccc(OCCN2CCCCC2)cc1)c1c(-c2ccc(O)cc2)sc2cc(O)ccc12` (centres unmarked) [Example 10]?
A: ED50 [1]: 1.7 mg/kg; EC50 [2]: 1.2 nM

Q: Which ED50 [1] does the source give for `CN(C)C(c1ccc(OCCN2CCCCC2)cc1)c1c(-c2ccc(O)cc2)sc2cc(O)ccc12` (centres unmarked) [Example 11] here?
A: The ED50 was 0.1 mg/kg.

Q: And the EC50 [2]?
A: The EC50 was 20 nM.

Q: Which ED50 [1] does the source give for `CNC(c1ccc(OCCN2CCCCC2)cc1)c1c(-c2ccc(O)cc2)sc2cc(O)ccc12` (centres unmarked) [Example 12] here?
A: The ED50 was 0.8 mg/kg.

Q: What about the EC50 [2] of the same compound?
A: Its EC50 is 4 nM.

Q: `N#CC(c1ccc(OCCN2CCCCC2)cc1)c1c(-c2ccc(O)cc2)sc2cc(O)ccc12` (centres unmarked) [Example 13] was tested. Which ED50 [1] did it give?
A: Its ED50 is 0.8 mg/kg.

Q: What about the EC50 [2] of the same compound?
A: Its EC50 is 0.8 nM.

Q: `NC(c1ccc(OCCN2CCCCC2)cc1)c1c(-c2ccc(O)cc2)sc2cc(O)ccc12` (centres unmarked) [Example 14] was tested. Which ED50 [1] did it give?
A: Its ED50 is 5.7 mg/kg.

Q: What about the EC50 [2] of the same compound?
A: Its EC50 is 6 nM.

Q: What does the source list for `CCN(CC)C(c1ccc(OCCN2CCCCC2)cc1)c1c(-c2ccc(O)cc2)sc2cc(O)ccc12` (centres unmarked) [Example 15]?
A: ED50 [1]: 3.8 mg/kg; EC50 [2]: 7 nM

Q: `Oc1ccc(-c2sc3cc(O)ccc3c2C(c2ccc(OCCN3CCCCC3)cc2)N2CCCC2)cc1` (centres unmarked) [Example 16] was tested. Which ED50 [1] did it give?
A: Its ED50 is 10 mg/kg.

Q: What about the EC50 [2] of the same compound?
A: Its EC50 is 15 nM.

Q: Which results are given for `Oc1ccc(-c2sc3cc(O)ccc3c2C(c2ccc(OCCN3CCCCC3)cc2)N2CCCCCC2)cc1` (centres unmarked) [Example 17]?
A: ED50 [1]: 10 mg/kg; EC50 [2]: 30 nM

Q: Which results are given for `OCCNC(c1ccc(OCCN2CCCCC2)cc1)c1c(-c2ccc(O)cc2)sc2cc(O)ccc12` (centres unmarked) [Example 18]?
A: Serum Cholesterol ED50 (mg/kg) [1]: N.A. at 10.0;; EC50 [2]: 90 nM

Q: Which results are given for `Oc1ccc(-c2sc3cc(O)ccc3c2C(NN2CCCCC2)c2ccc(OCCN3CCCCC3)cc2)cc1` (centres unmarked) [Example 20]?
A: ED50 [1]: 10 mg/kg; EC50 [2]: 7 nM
